From patent publication US20030105119A1, “Barbiturates as integrin antagonists and their use for treating inflammatory diseases” (priority 2001, published 2003)

Target: T1, α4β7 integrin binding to human MAdCAM-1-Ig (Homo sapiens, UniProt P13612+P26010)
T1 construct: endogenous in cells; host or cells: RPMI 8866 cells
T1 sequence (P13612 34-1032): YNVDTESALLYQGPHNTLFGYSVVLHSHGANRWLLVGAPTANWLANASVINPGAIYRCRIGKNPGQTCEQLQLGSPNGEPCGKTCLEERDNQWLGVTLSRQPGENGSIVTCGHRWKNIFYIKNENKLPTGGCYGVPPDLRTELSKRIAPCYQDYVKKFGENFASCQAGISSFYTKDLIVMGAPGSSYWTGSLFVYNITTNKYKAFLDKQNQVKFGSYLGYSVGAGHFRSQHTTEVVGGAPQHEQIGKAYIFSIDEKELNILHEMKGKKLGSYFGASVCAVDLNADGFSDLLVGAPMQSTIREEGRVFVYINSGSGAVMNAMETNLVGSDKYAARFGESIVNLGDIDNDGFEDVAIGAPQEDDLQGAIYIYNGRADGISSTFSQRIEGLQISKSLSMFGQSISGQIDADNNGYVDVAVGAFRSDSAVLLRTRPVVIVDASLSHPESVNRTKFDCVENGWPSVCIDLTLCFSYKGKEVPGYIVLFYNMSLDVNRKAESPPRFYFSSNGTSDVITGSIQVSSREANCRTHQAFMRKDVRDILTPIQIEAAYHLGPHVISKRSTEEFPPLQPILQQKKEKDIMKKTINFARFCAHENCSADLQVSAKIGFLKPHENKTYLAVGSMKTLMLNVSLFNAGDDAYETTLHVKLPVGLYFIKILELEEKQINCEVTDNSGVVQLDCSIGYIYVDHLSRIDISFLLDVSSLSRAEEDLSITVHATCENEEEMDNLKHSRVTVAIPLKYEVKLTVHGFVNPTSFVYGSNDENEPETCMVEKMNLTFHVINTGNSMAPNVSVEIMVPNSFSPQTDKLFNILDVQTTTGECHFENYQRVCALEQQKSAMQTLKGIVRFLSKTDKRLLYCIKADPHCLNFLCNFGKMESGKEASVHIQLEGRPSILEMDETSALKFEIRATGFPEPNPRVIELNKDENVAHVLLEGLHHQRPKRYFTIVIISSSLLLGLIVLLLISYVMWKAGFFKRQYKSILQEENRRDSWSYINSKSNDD
T1 sequence (P26010 20-798): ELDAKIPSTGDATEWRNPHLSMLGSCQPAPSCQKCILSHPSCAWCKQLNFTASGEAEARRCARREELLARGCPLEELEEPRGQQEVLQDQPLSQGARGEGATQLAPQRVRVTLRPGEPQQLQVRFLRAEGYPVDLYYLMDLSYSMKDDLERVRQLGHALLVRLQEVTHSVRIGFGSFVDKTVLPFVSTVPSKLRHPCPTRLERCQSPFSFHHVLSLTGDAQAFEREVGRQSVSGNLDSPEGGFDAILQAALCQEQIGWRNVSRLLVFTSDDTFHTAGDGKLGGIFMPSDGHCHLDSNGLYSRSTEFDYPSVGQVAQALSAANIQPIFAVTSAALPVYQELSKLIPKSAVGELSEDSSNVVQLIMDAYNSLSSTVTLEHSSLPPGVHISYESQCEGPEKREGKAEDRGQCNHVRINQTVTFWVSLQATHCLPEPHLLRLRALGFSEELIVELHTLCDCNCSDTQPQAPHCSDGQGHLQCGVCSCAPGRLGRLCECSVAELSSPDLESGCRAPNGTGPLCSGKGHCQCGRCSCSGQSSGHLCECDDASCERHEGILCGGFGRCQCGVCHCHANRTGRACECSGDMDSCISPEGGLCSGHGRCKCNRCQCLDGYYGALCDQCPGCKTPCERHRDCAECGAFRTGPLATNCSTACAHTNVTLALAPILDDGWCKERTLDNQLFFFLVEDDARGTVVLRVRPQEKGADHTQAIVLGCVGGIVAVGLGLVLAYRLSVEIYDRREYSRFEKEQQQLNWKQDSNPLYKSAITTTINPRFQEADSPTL
Experiment: Adhesion inhibition assay (BCEF-labeled RPMI 8866 cells on huMAdCAM-1-Ig coated plates)
Assay type: cell-based
Method: Biological Results. Adhesion Inhibition Assay Method
RPMI 8866 cells are used in this assay. They are available in a medium with 10% FBS, 200 mM L-Glutamine, and penicillin/streptomycin 10x.
1. Coat plates (costar 3590) with a human MAdCAM-1-Ig dilution prepared in carbonate buffer (25 ng of huMAdCAM/well in 50 μl carbonate buffer) overnight at 4° C. Carbonate buffer is NaHCO3 3.44 g, Na2CO3 1.72 g, water qs 200 ml; adjust pH to 9.5, filter thru 0.2 μm and store at 4° C.
2. Wash plates with the plate washer (BioTeck Instruments EL404) once, using settings for washing cell rinse, with the following parameters:
3. Block wells with blocking buffer (10% calf serum, PBS), 100 μl/well, 37° C., 3 h.
4. Wash plates with the plate washer once, using settings for washing cell rinse. Use plates within 10 min after washing.
5. Label the RPMI 8866 cells with 2′,7′-bis-(2-carboxyethyl)-5-6-carboxy-fluorescein acetoxymethyl ester (BCEF-AM) as follows:
spin down the cells at 1500 rpm, 10 min. Decant supernatant. Resuspend cells at 4×10^6 cells/ml sterile PBS in 50 ml polypropylene tube. Add 2 μl BCEF-AM per ml of resuspended cells. Mix well and wrap tube in aluminum foil (to exclude light). Place cells at 37° C. for 30 min to label. Spin labeled cells down (while covered in aluminum foil) at 1500 rpm, 10 min. Decant supernatant. Resuspend labeled cells in 25 ml assay buffer and centrifuge at 1500 rpm, 10 min. Resuspend labeled cells in assay buffer at 2.5×10^6 cells/ml.
(assay buffer: HBSS, penicillin/streptomycin 10×, MnCl2 0.5 mM, Hepes 25 mM, pH=7.2)
6. Prepare dilutions of positive control: LDP-02 (α4β7 integrin blocking antibody) in assay buffer at 250 μg/ml and compounds of the invention in DMSO for addition to assay plates.
7. To polypropylene plate, add, with Multimek:
2.2 μl/well of 100% DMSO or compound dilutions;
147.8 μl/well of assay buffer to all wells;
50 μl/well of BCEF-labeled RPMI 8866 cells (at 2.5×10^6 cells/ml assay buffer);
Mix well and add 180 μl of the mix to huMAdCAM-1-Ig coated plate.
8. Read plate in fluorescent plate reader (excite at 485 nm, read at 535 nm) and adjust the gain (total signal).
9. Wrap plates in aluminum foils and incubate at 25° C. for 30 min.
10. Wash plates with the plate washer using settings for washing cell rinse.
11. Read plate in fluorescent plate reader (excite at 485 nm, read at 535 nm).
The following Table 2 summarizes the results for some of the compounds and indicates the IC50 in μM.

SMILES | IC50
O=C1NC(=O)N(Cc2cccnc2)C(=O)/C1=C/c1c[nH]c2ccccc12 [Example 49, 5-(1H-indol-3-ylmethylene)-1-pyridin-3-ylmethyl-pyrimidine-2,4,6-trione] | 1300 nM
Cc1ccccc1N1C(=O)NC(=O)/C(=C/C=C/c2ccccc2)C1=O [Example 35, 5-(3-Phenyl-allylidene)-1-o-tolyl-pyrimidine-2,4,6-trione] | 2650 nM
O=C1NC(=O)N(c2ccccc2Cl)C(=O)/C1=C\C=C\c1ccccc1 [Example 43, 1-(2-Chloro-phenyl)-5-(3-phenyl-allylidene)-pyrimidine-2,4,6-trione] | 1900 nM
O=C1NC(=O)N(c2cccc3cccnc23)C(=O)/C1=C/C=C/c1ccccc1 [Example 51, 5-(3-Phenyl-allylidene)-1-quinolin-8-yl-pyrimidine-2,4,6-trione] | 2700 nM
O=C1NC(=O)N(c2cccc3ccccc23)C(=O)/C1=C\c1c[nH]c2ccccc12 [Example 1, 5-(1H-Indol-3-ylmethylene)-naphthalen-1-yl-pyrimidine-2,4,6-trione] | 410 nM
Cc1ccc(N2C(=O)NC(=O)/C(=C\C=C\c3ccccc3)C2=O)cc1 [Example 42, 5-(3-Phenyl-allylidene)-1-p-tolyl-pyrimidine-2,4,6-trione] | 2600 nM
Cn1cc(/C=C2/C(=O)NC(=O)N(c3cccc4ccccc34)C2=O)c2ccccc21 [Example 2, 5-(1-Methyl-1H-indol-3-ylmethylene)-1-naphthalen-1-yl-pyrimidine-2,4,6-trione] | 940 nM
Cc1ccccc1N1C(=O)NC(=O)/C(=C/c2cn(C)c3ccccc23)C1=O [Example 15, 5-(1-Methyl-1H-indol-3-ylmethylene)-1-o-tolyl-pyrimidine-2,4,6-trione] | 2300 nM
Cc1cccc(N2C(=O)NC(=O)/C(=C/c3c[nH]c4ccccc34)C2=O)c1 [Example 17, 5-(1H-Indol-3-ylmethylene)-1-m-tolyl-pyrimidine-2,4,6-trione] | 2930 nM
O=C1NC(=O)N(c2cccc(Cl)c2)C(=O)/C1=C/c1c[nH]c2ccccc12 [Example 37, 1-(3-Chloro-phenyl)-5-(1H-indol-3-ylmethylene)-pyrimidine-2,4,6-trione] | 2750 nM
Cc1cccc(N2C(=O)NC(=O)/C(=C\c3ccc[nH]3)C2=O)c1 [Example 24, 5-(Pyrrol-2-ylmethylene)-1-m-tolyl-pyrimidine-2,4,6-trione] | 2950 nM
O=C1NC(=O)N(c2ccccc2Cl)C(=O)/C1=C\c1c[nH]c2ccccc12 [Example 18, 1-(2-Chloro-phenyl)-5-(1H-indol-3-ylmethylene)-pyrimidine-2,4,6-trione] | 2500 nM
Cc1cccc(N2C(=O)NC(=O)/C(=C\C=C\c3ccccc3)C2=O)c1 [Example 16, 5-(3-Phenyl-allylidene)-1-m-tolyl-pyrimidine-2,4,6-trione] | 900 nM
